Measured values from PMC11207052, “Synthesis, Biological, and Computational Evaluations of Conformationally Restricted NAD-Mimics as Discriminant Inhibitors of Human NMN-Adenylyltransferase Isozymes” (Pharmaceuticals, 2024).
Counter-ions that a name gives are not always drawn. Like-named read-outs stand apart in the source and are kept apart here. One block for each compound: values may come before it.

Tests used:
hNMNAT-3 [1] = molecular target: T1, hNMNAT-3 (Homo sapiens, UniProt Q96T66); assay: NMN adenylyltransferase activity assay (pyrophosphatase-coupled, malachite green), hNMNAT-3; assay type: biochemical; parameters: key to mode of inhibition (in brackets) towards NMN, hNMNAT-3 / mode of inhibition (in brackets) towards ATP, hNMNAT-3: M, mixed inhibition; C, competitive; U, uncompetitive; conditions: for enzyme inhibition in the initial screening, hNMNAT-3: fixed concentration of 0.5 mM inhibitor; for Ki: inhibitor 30 and 90 µM, ± std. error, αKi in the case of uncompetitive inhibition
T1 construct: made in house
Excerpt: (§1) The reaction catalyzed by NMN adenylyltransferase can be represented as NMN + ATP (NAD + PPi). To avoid interference of methyl NAD analogues with NAD-based detection assays, we used a “pyrophosphate-dependent” coupled assay that couples NMNAT activity with inorganic pyrophosphatase (PPase) that hydrolyzes PPi into two molecules of inorganic phosphate (Pi). Phosphate was quantified using a malachite green dye as described. Enzyme purification procedures followed previous reports. The reactions were carried out using a 96-well microplate assay format at room temperature in a total volume of 50 µL per well. The reaction mixtures contained 100 mM Hepes, pH 7.5, 10 mM MgCl2, 0.1 mg/mL bovine serum albumin, and an excess of 4 U/mL of inorganic pyrophosphatase. The hNMNAT concentration, ranging from 3 to 15 nM, was adjusted in different tests to ensure initial velocity conditions (5–10% substrate depletion) while retaining a linear response. An amount of 100 µL of the malachite green reagent was added to each well to stop the reactions. Following a 20–30 min incubation period, the molybdate in the reagent formed a complex with the free phosphate, resulting in full-color development. The phosphate concentration was then quantified by measuring the absorbance at 620 nm using a microplate reader (Biotek Synergy HT) and interpolating these values against a pre-established standard curve. Absorbance from control reactions performed in the absence of hNMNAT were subtracted from absorbances of the respective reactions with the enzyme to account for background hydrolysis. Details for substrate and inhibitor concentration range are given below and in the legend of Figure 2. Assays with the inhibitors were carried out in triplicate, and the percentage of inhibition at each concentration was calculated for the initial screening at 0.5 mM.
(§2) Values for inhibition constant Ki and α were determined by fitting the data to the rate equation for general mixed model inhibition: V = VmaxS/[Km(1 + I/Ki) + S(1 + I/[…])] using GraphPad Prism software version 7.05, where Vmax and Km are the classic Michaelis–Menten parameters, Ki is the equilibrium dissociation constant for the enzyme-inhibitor complex, S and I are the substrate and the inhibitor concentration, respectively. This model includes competitive, uncompetitive, and noncompetitive inhibition as special cases that the α values can diagnose. Further mechanistic insights into the mode of inhibition were drawn by graphical inspection of the Lineaweaver–Burk plots.

hNMNAT-1 = molecular target: T2, hNMNAT-1 (Homo sapiens, UniProt Q9HAN9); assay: NMN adenylyltransferase activity assay (pyrophosphatase-coupled, malachite green), hNMNAT-1; assay type: biochemical; parameters: key to mode of inhibition (in brackets) towards NMN, hNMNAT-1 / mode of inhibition (in brackets) towards ATP, hNMNAT-1: M, mixed inhibition; C, competitive; U, uncompetitive; conditions: for Ki: inhibitor 30 and 90 µM, ± std. error, αKi in the case of uncompetitive inhibition
T2 construct: made in house
Excerpt: as §1, §2

hNMNAT-2 = molecular target: T3, hNMNAT-2 (Homo sapiens, UniProt Q9BZQ4); assay: NMN adenylyltransferase activity assay (pyrophosphatase-coupled, malachite green), hNMNAT-2; assay type: biochemical; parameters: key to mode of inhibition (in brackets) towards NMN, hNMNAT-2 / mode of inhibition (in brackets) towards ATP, hNMNAT-2: M, mixed inhibition; C, competitive; U, uncompetitive; conditions: for enzyme inhibition in the initial screening, hNMNAT-2: fixed concentration of 0.5 mM inhibitor; for Ki: inhibitor 30 and 90 µM, ± std. error, αKi in the case of uncompetitive inhibition
T3 construct: made in house
Excerpt: as §1, §2

hNMNAT-3 [2] = molecular target: T1, hNMNAT-3; parameters: method as in PMID 16118205, PMID 18336280; conditions: most sensitive isoform; cited from earlier work
[3] = fixed concentration of 0.5 mM inhibitor
[4] = ATP varied, NMN fixed (0.5 mM), read-out: Ki towards ATP, hNMNAT-2
[5] = NMN varied, ATP fixed (0.5 mM), read-out: Ki towards NMN, hNMNAT-2
[6] = steady-state kinetic analysis, versus ATP

T2 sequence (Q9HAN9 whole entry): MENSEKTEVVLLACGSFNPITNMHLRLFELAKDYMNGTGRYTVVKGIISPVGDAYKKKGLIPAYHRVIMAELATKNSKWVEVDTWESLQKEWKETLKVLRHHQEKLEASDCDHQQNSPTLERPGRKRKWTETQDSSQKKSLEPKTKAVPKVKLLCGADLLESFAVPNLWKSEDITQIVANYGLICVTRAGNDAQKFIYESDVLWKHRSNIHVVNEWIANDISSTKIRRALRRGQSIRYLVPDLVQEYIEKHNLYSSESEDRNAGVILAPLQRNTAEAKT
T3 sequence (Q9BZQ4 whole entry): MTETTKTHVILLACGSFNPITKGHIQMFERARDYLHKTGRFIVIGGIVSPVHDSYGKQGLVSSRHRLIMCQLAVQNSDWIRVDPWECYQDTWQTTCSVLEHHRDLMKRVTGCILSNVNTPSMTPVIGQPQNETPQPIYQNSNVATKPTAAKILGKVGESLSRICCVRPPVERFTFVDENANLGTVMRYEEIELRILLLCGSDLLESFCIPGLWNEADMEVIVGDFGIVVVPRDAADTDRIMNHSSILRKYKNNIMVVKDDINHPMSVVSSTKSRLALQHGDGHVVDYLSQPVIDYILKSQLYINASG
T1 sequence (Q96T66 whole entry): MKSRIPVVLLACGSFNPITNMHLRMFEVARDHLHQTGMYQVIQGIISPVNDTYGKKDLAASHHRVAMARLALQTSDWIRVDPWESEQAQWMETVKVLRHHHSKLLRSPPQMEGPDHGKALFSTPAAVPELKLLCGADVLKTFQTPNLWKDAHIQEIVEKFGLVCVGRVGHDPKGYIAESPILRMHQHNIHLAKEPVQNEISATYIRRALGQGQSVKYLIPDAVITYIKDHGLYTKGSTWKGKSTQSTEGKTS

enzyme inhibition in the initial screening, hNMNAT-3 (hNMNAT-3 [1]): absence of inhibition | enzyme inhibition in the initial screening, hNMNAT-1 (hNMNAT-1; [3]): absence of inhibition | enzyme inhibition in the initial screening, hNMNAT-2 (hNMNAT-2): absence of inhibition
Structure (SMILES): C[C@@]1(O)[C@H](O)[C@@H](COP(=O)(O)O)O[C@H]1n1cnc2c(N)ncnc21 [2′-MeAMP (5), 9H-(2′-C-Methyl-β-D-ribofuranosyl)adenine-5′-monophosphate Tributyl Ammonium Salt]

enzyme inhibition in the initial screening, hNMNAT-3 (hNMNAT-3 [1]): absence of inhibition | enzyme inhibition in the initial screening, hNMNAT-1 (hNMNAT-1; [3]): absence of inhibition | enzyme inhibition in the initial screening, hNMNAT-2 (hNMNAT-2): absence of inhibition
Structure (SMILES): C[C@@]1(O)[C@@H](CO)O[C@@H](n2cnc3c(N)ncnc32)[C@@H]1O [Compound 12, 3′-MeAdo]

enzyme inhibition in the initial screening, hNMNAT-3 (hNMNAT-3 [1]): absence of inhibition | enzyme inhibition in the initial screening, hNMNAT-1 (hNMNAT-1; [3]): absence of inhibition | enzyme inhibition in the initial screening, hNMNAT-2 (hNMNAT-2): absence of inhibition
Structure (SMILES): C[C@@]1(O)[C@H](O)[C@@H](CO)O[C@H]1n1cnc2c(N)ncnc21 [Compound 11, 2′-MeAdo]

inhibition at 500 µM (hNMNAT-1; fixed concentration of 0.5 mM inhibitor, read-out: enzyme inhibition in the initial screening, hNMNAT-1): < 50% | mode of inhibition (in brackets) towards ATP, hNMNAT-2 (hNMNAT-2; ATP varied): M | Ki (hNMNAT-2; [4]): 21 ± 3 µM | mode of inhibition (in brackets) towards NMN, hNMNAT-2 (hNMNAT-2; NMN varied): M | Ki (hNMNAT-2; [5]): 15 ± 3 µM
Structure (SMILES): C[C@@]1(O)[C@H](O)[C@@H](COP(=O)([O-])OP(=O)(O)OC[C@H]2O[C@@H]([n+]3cccc(C(N)=O)c3)[C@H](O)[C@@H]2O)O[C@H]1n1cnc2c(N)ncnc21 [2′-MeNAD (1), P^1-[5′-(2′-C-Methyl-β-D-ribofuranosyl)adenine]-P^2-[5′-(β-D-ribofuranosyl)nicotinamide] Pyrophosphate]
mode of inhibition (in words), hNMNAT-2 (hNMNAT-2; steady-state kinetic analysis): mixed-type inhibition with a strong non-competitive character

mode of inhibition (in brackets) towards ATP, hNMNAT-3 (hNMNAT-3 [1]; ATP varied): C | Ki (hNMNAT-3 [1]; ATP varied, NMN fixed (0.5 mM), read-out: Ki towards ATP, hNMNAT-3): 223 ± 22 µM | mode of inhibition (in brackets) towards NMN, hNMNAT-3 (hNMNAT-3 [1]; NMN varied): C | Ki (hNMNAT-3 [1]; NMN varied, ATP fixed (0.5 mM), read-out: Ki towards NMN, hNMNAT-3): 224 ± 17 µM | mode of inhibition (in brackets) towards ATP, hNMNAT-1 (hNMNAT-1; ATP varied): U | Ki (hNMNAT-1; ATP varied, NMN fixed (0.5 mM), read-out: Ki towards ATP, hNMNAT-1): 82 ± 14 µM | mode of inhibition (in brackets) towards NMN, hNMNAT-1 (hNMNAT-1; NMN varied): C | Ki (hNMNAT-1; NMN varied, ATP fixed (0.5 mM), read-out: Ki towards NMN, hNMNAT-1): 168 ± 19 µM | mode of inhibition versus ATP (in words), hNMNAT-1 (hNMNAT-1; [6]): uncompetitive character | mode of inhibition (in brackets) towards ATP, hNMNAT-2 (hNMNAT-2; ATP varied): U | Ki (hNMNAT-2; [4]): 41 ± 14 µM | mode of inhibition (in brackets) towards NMN, hNMNAT-2 (hNMNAT-2; NMN varied): M | Ki (hNMNAT-2; [5]): 60 ± 18 µM | mode of inhibition versus ATP (in words), hNMNAT-2 (hNMNAT-2; [6]): uncompetitive character
Structure (SMILES): C[C@@]1(O)[C@H](O)[C@@H](COP(=O)([O-])OP(=O)(O)OC[C@H]2O[C@@H]([n+]3cccc(C(=O)O)c3)[C@H](O)[C@@H]2O)O[C@H]1n1cnc2c(N)ncnc21 [2′-MeNaAD (3), P^1-[5′-(2′-C-Methyl-β-D-ribofuranosyl)adenine]-P^2-[5′-(β-D-ribofuranosyl)nicotinic acid] Pyrophospshate]

enzyme inhibition in the initial screening, hNMNAT-3 (hNMNAT-3 [1]): absence of inhibition | enzyme inhibition in the initial screening, hNMNAT-1 (hNMNAT-1; [3]): absence of inhibition | enzyme inhibition in the initial screening, hNMNAT-2 (hNMNAT-2): absence of inhibition
Structure (SMILES): C[C@@]1(O)[C@@H](COP(=O)(O)O)O[C@@H](n2cnc3c(N)ncnc32)[C@@H]1O [3′-MeAMP (6), 9H-(3′-C-Methyl-β-D-ribofuranosyl)adenine-5′-monophosphate Tributyl Ammonium Salt]

Structure (SMILES): O=C(OC[C@H]1O[C@@H](OC(=O)c2cc(O)c(O)c(OC(=O)c3cc(O)c(O)c(O)c3)c2)[C@H](OC(=O)c2cc(O)c(O)c(OC(=O)c3cc(O)c(O)c(O)c3)c2)[C@@H](OC(=O)c2cc(O)c(O)c(OC(=O)c3cc(O)c(O)c(O)c3)c2)[C@@H]1OC(=O)c1cc(O)c(O)c(OC(=O)c2cc(O)c(O)c(O)c2)c1)c1cc(O)c(O)c(OC(=O)c2cc(O)c(O)c(O)c2)c1 [Gallotannin]
IC50 (hNMNAT-3 [2]): 2 µM
